What was measured:
Test in all cases: KinomeScan
Type in all cases: binding
Conditions in all cases: 1 μM
DCAMKL1 = target: T1, DCAMKL1 (Homo sapiens, UniProt O15075)
T1 construct: purchased DiscoverX (KINOMEscan)

ACVRL1 = target: T2, ACVRL1 (Homo sapiens, UniProt P37023)
T2 construct: purchased DiscoverX (KINOMEscan)

INSR = target: T3, INSR (Homo sapiens, UniProt P06213)
T3 construct: purchased DiscoverX (KINOMEscan)

NEK5 = target: T4, NEK5 (Homo sapiens, UniProt Q6P3R8)
T4 construct: purchased DiscoverX (KINOMEscan)

CDC2L2 = target: T5, CDC2L2 (Homo sapiens, UniProt Q9UQ88)
T5 construct: purchased DiscoverX (KINOMEscan)

AAK1 = target: T6, AAK1 (Homo sapiens, UniProt Q2M2I8)
T6 construct: purchased DiscoverX (KINOMEscan)

MLK1 = target: T7, MLK1 (Homo sapiens, UniProt P80192)
T7 construct: purchased DiscoverX (KINOMEscan)

FLT3(N841I) = target: T8, FLT3(N841I) (Homo sapiens, UniProt P36888, N841I)
T8 construct: purchased DiscoverX (KINOMEscan)

MST1 = target: T9, MST1 (Homo sapiens, UniProt Q13043)
T9 construct: purchased DiscoverX (KINOMEscan)

MEK5 = target: T10, MEK5 (Homo sapiens, UniProt Q13163)
T10 construct: purchased DiscoverX (KINOMEscan)

NLK = target: T11, NLK (Homo sapiens, UniProt Q9UBE8)
T11 construct: purchased DiscoverX (KINOMEscan)

SRMS = target: T12, SRMS (Homo sapiens, UniProt Q9H3Y6)
T12 construct: purchased DiscoverX (KINOMEscan)

SRPK3 = target: T13, SRPK3 (Homo sapiens, UniProt Q9UPE1)
T13 construct: purchased DiscoverX (KINOMEscan)

[1] = target: T14, TYK2(JH2domain-pseudokinase) (Homo sapiens, UniProt P29597)
T14 construct: TYK2(JH2domain-pseudokinase); purchased DiscoverX (KINOMEscan)
T14 sequence (P29597 556-888 limits assumed): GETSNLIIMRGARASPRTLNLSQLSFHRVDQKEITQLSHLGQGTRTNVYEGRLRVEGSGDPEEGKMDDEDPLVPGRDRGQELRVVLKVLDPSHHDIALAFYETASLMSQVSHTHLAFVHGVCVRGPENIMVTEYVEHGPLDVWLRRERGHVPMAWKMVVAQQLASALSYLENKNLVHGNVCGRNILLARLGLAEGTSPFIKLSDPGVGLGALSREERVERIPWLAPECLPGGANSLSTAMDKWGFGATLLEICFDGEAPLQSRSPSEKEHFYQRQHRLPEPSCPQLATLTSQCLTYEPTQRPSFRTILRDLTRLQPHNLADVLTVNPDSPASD

TIE1 = target: T15, TIE1 (Homo sapiens, UniProt P35590)
T15 construct: purchased DiscoverX (KINOMEscan)
T15 sequence (P35590 22-1138): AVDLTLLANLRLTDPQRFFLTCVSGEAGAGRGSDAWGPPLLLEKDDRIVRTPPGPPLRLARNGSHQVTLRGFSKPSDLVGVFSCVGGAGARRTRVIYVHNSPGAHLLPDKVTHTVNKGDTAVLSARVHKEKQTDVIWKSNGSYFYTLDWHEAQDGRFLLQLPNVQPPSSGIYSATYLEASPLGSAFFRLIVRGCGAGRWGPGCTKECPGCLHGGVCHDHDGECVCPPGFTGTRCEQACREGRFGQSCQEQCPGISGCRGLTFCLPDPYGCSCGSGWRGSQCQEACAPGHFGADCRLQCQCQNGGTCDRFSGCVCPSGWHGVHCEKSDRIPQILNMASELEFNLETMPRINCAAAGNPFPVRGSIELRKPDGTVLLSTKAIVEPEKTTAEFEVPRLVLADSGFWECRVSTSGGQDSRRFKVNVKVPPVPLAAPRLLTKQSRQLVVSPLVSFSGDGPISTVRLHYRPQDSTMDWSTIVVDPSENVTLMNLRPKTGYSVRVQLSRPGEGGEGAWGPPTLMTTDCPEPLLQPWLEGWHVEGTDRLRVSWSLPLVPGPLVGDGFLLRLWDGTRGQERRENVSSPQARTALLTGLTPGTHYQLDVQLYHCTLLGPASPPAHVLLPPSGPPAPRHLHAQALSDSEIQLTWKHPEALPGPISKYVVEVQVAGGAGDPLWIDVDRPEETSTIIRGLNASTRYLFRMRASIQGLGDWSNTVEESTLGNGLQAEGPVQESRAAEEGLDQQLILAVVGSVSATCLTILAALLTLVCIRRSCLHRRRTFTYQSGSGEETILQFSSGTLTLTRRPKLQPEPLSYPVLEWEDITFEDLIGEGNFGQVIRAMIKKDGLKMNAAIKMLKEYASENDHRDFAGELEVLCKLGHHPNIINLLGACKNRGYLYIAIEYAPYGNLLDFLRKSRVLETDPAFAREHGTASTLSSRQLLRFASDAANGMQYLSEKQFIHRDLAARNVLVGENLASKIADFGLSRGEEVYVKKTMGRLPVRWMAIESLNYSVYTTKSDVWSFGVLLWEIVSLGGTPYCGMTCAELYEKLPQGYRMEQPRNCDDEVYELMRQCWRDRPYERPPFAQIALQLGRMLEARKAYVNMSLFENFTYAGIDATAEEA

ERBB4 = target: T16, ERBB4 (Homo sapiens, UniProt Q15303)
T16 construct: purchased DiscoverX (KINOMEscan)

LATS1 = target: T17, LATS1 (Homo sapiens, UniProt O95835)
T17 construct: purchased DiscoverX (KINOMEscan)
T17 sequence (O95835 whole entry): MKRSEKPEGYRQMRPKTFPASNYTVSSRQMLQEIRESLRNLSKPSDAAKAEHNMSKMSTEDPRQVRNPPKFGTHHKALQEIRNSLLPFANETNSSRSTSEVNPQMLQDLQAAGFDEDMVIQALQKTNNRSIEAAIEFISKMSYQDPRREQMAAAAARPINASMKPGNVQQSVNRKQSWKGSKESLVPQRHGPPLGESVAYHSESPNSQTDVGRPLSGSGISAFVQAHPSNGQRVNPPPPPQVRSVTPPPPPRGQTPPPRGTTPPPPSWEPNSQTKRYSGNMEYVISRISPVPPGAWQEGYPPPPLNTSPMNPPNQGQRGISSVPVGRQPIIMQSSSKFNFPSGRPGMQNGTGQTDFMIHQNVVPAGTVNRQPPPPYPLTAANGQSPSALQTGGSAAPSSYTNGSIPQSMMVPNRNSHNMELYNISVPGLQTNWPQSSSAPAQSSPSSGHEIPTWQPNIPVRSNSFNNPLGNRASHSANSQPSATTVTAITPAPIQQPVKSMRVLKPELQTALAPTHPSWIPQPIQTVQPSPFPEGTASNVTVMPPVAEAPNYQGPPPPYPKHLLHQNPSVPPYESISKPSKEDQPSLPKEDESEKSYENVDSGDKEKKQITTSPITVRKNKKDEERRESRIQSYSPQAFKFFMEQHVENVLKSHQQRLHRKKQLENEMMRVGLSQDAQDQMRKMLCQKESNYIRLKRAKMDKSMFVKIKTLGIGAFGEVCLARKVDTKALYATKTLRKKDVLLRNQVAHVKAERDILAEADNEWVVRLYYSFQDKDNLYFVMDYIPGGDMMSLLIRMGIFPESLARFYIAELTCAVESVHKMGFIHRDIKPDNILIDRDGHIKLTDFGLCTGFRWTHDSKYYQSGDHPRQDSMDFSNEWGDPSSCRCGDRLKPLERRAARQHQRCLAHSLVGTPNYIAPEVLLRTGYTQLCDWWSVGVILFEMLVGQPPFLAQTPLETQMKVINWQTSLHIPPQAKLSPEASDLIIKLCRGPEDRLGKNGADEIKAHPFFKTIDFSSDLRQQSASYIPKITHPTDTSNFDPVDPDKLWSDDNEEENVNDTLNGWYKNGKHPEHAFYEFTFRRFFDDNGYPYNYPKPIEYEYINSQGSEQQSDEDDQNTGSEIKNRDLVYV

TLK2 = target: T18, TLK2 (Homo sapiens, UniProt Q86UE8)
T18 construct: purchased DiscoverX (KINOMEscan)

CSNK1G2 = target: T19, CSNK1G2 (Homo sapiens, UniProt P78368)
T19 construct: purchased DiscoverX (KINOMEscan)

FLT3 = target: T20, FLT3 (Homo sapiens, UniProt P36888)
T20 construct: purchased DiscoverX (KINOMEscan)

CDK9 = target: T21, CDK9 (Homo sapiens, UniProt P50750)
T21 construct: purchased DiscoverX (KINOMEscan)

[2] = target: T22, ABL1(Q252H)-phosphorylated (Homo sapiens, UniProt P00519, Q252H)
T22 construct: purchased DiscoverX (KINOMEscan)

INSRR = target: T23, INSRR (Homo sapiens, UniProt P14616)
T23 construct: purchased DiscoverX (KINOMEscan)

CDK4-cyclinD1 = target: T24, CDK4-cyclinD1 (Homo sapiens, UniProt P11802)
T24 construct: purchased DiscoverX (KINOMEscan)

LRRK2(G2019S) = target: T25, LRRK2(G2019S) (Homo sapiens, UniProt Q5S007, G2019S)
T25 construct: purchased DiscoverX (KINOMEscan)

SYK = target: T26, SYK (Homo sapiens, UniProt P43405)
T26 construct: purchased DiscoverX (KINOMEscan)

MAST1 = target: T27, MAST1 (Homo sapiens, UniProt Q9Y2H9)
T27 construct: purchased DiscoverX (KINOMEscan)

ASK1 = target: T28, ASK1 (Homo sapiens, UniProt Q99683)
T28 construct: purchased DiscoverX (KINOMEscan)

VRK2 = target: T29, VRK2 (Homo sapiens, UniProt Q86Y07)
T29 construct: purchased DiscoverX (KINOMEscan)

GRK4 = target: T30, GRK4 (Homo sapiens, UniProt P32298)
T30 construct: purchased DiscoverX (KINOMEscan)
T30 sequence (P32298 whole entry): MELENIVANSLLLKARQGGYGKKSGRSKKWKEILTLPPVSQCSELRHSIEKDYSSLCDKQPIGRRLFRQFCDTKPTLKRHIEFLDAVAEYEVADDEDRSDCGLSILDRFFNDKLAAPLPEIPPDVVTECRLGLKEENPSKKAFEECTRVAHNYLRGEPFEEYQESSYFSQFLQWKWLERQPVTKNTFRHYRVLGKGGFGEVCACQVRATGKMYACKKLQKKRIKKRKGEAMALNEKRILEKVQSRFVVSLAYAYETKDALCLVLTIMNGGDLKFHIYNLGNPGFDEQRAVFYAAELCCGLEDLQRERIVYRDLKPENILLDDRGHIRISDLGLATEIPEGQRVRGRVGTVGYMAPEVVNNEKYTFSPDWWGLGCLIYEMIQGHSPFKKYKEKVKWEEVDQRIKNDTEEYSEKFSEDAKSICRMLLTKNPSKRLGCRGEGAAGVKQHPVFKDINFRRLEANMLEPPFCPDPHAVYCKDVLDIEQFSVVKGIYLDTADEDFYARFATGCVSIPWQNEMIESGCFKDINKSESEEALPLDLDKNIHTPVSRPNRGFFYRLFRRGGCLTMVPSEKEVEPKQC

CDC2L5 = target: T31, CDC2L5 (Homo sapiens, UniProt Q14004)
T31 construct: purchased DiscoverX (KINOMEscan)

IGF1R = target: T32, IGF1R (Homo sapiens, UniProt P08069)
T32 construct: purchased DiscoverX (KINOMEscan)

CLK2 = target: T33, CLK2 (Homo sapiens, UniProt P49760)
T33 construct: purchased DiscoverX (KINOMEscan)

[3] = target: T34, ABL1(Y253F)-phosphorylated (Homo sapiens, UniProt P00519, Y253F)
T34 construct: purchased DiscoverX (KINOMEscan)

EPHA7 = target: T35, EPHA7 (Homo sapiens, UniProt Q15375)
T35 construct: purchased DiscoverX (KINOMEscan)

ACVR1 = target: T36, ACVR1 (Homo sapiens, UniProt Q04771)
T36 construct: purchased DiscoverX (KINOMEscan)

BMPR1B = target: T37, BMPR1B (Homo sapiens, UniProt O00238)
T37 construct: purchased DiscoverX (KINOMEscan)
T37 sequence (O00238 14-502): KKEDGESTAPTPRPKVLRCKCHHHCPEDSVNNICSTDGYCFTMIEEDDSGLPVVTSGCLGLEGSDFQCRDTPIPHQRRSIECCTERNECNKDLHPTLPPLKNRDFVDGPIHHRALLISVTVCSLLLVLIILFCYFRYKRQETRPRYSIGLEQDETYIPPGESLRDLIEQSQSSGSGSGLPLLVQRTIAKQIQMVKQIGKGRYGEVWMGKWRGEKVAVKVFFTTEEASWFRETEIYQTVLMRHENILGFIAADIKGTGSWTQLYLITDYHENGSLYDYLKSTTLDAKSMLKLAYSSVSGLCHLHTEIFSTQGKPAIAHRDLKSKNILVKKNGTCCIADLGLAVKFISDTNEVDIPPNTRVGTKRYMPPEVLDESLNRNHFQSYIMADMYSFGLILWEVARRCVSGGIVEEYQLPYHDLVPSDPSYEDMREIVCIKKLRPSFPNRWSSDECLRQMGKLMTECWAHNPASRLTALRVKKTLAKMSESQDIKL

T3 sequence (P06213 28-1382): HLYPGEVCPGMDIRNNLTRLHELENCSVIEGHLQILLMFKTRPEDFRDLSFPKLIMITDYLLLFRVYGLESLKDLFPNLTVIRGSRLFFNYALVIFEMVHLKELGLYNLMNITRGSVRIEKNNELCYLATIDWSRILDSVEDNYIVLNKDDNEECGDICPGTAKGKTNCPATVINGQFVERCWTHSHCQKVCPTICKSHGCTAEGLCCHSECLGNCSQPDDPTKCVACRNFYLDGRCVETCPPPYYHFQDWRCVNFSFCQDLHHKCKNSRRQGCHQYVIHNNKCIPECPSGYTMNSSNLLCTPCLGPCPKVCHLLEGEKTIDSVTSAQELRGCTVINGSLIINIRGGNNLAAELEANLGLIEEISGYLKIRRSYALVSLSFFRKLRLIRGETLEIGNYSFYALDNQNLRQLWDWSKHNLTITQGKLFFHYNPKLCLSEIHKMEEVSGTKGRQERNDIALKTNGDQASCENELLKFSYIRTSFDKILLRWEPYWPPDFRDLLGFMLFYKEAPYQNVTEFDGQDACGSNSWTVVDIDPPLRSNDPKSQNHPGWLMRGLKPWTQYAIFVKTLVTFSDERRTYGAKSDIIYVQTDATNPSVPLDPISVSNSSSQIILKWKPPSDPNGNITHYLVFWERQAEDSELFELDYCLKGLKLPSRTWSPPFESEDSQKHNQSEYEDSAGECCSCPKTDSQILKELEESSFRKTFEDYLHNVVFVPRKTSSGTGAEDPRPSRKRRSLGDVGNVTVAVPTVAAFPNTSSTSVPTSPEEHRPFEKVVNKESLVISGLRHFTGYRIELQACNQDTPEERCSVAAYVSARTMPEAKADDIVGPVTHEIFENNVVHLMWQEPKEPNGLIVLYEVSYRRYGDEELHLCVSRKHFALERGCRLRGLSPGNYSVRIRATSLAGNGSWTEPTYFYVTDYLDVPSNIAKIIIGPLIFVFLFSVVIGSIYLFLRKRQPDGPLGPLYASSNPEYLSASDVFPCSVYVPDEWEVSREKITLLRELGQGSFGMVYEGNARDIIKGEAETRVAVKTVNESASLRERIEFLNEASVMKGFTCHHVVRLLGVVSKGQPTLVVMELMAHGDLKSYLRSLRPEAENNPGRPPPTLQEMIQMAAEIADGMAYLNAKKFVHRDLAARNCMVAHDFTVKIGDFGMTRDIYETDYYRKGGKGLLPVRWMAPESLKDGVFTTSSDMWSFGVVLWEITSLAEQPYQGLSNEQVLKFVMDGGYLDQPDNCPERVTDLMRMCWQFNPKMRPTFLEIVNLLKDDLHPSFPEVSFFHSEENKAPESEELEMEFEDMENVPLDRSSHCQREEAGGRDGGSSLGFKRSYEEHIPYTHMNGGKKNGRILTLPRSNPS

COc1cc(/C=C2\N=C(N)NC2=O)ccc1O [Polyandrocarpamine A]
Score (DCAMKL1): 98 | Score (ACVRL1): 100 | Score (INSR): 90 | Score (NEK5): 95 | Score (CDC2L2): 100 | Score (AAK1): 100 | Score (MLK1): 100 | Score (FLT3(N841I)): 100 | Score (MST1): 70 | Score (MEK5): 78 | Score (NLK): 100 | Score (SRMS): 100 | Score (SRPK3): 100 | Score [1]: 100 | Score (TIE1): 81 | Score (ERBB4): 99 | Score (LATS1): 100 | Score (TLK2): 100 | Score (CSNK1G2): 100 | Score (FLT3): 100 | Score (CDK9): 88 | Score [2]: 100 | Score (INSRR): 81 | Score (CDK4-cyclinD1): 96 | Score (LRRK2(G2019S)): 100 | Score (SYK): 100 | Score (MAST1): 100 | Score (ASK1): 100 | Score (VRK2): 100 | Score (GRK4): 100 | Score (CDC2L5): 100 | Score (IGF1R): 100 | Score (CLK2): 45 | Score [3]: 100 | Score (EPHA7): 100 | Score (ACVR1): 100 | Score (BMPR1B): 42
